Results reported in patent US4230705A, “6-Phenyl-1,2,4-triazolo[4,3-b]pyridazines and their uses in treating anxiety” (American Cyanamid Company, priority 1976, dated 1980).

How the values were obtained:
[1] = test system: Clonic Seizures Caused By Pentylenetetrazole; assay: Protection against clonic seizures caused by pentylenetetrazole in rats; type: in vivo; conditions: Rattus norvegicus; oral, 2% starch vehicle; pentylenetetrazole 21 to 23 mg./kg. intravenously at estimated time of peak effect; protection of 50% of rats; read-out: Medium Effective Oral Dose mg./kg. ED50 (converted)
Experimental: The anti-anxiety properties of the novel compounds of the present invention have been established in a test which indicates anxiolytic activity by the measure of protection from convulsions resulting from the administration of pentylenetetrazole. Graded dose levels of the compounds of this invention were administered orally, in a 2% starch vehicle, to groups of at least 5 rats. At the estimated time of peak effect, the rats were treated intravenously with pentylenetetrazole at a dose of 21 to 23 mg./kg. of body weight. This dose is estimated to cause clonic seizures in 99% of unprotected rats. The effective dose (ED50) of the test compound for protection of 50% of the animals is calculated by the method of D. H. Finney in "Statistical Methods in Biological Assay", Second Edition, Hafner Publishing Co., New York, 1964, pp. 456-457. Representative results are given in Table I which follows in comparison with chlordiazepoxide or meprobamate, which were tested in exactly the same manner. It has been reported [R. T. Hill and D. H. Tedeschi, "Animal Testing and Screening Procedures in Evaluating Psychotropic Drugs" in "An Introduction to Psychopharmacology", Eds. R. R. Rech and K. E. Moore, Raven Press, New York, pp. 237-288 (1971)] that there is a high degree of correlation between antagonism of pentylenetetrazole seizures in rats and anti-anxiety effects in higher warm-blooded animals.

[2] = test system: conflict situation in rats; assay: Non-conditioned passive avoidance (conflict) procedure in rats; type: in vivo, Sprague-Dawley rats; conditions: Rattus norvegicus; oral, 2% starch vehicle; 9 or more shocks in 5 minute test period; rats deprived of water 48 hours and food 24 hours; read-out: Median Effective Dose (ED50 mg./kg.)
Experimental: Another test which has been used to assess anti-anxiety effects is a non-conditioned passive avoidance procedure described by J. R. Vogel, B. Beer and D. E. Clody, "A Simple and Reliable Conflict Procedure for Testing Anti-Anxiety Agents", Psychopharmacologia, Vol. 21, pp. 1-7 (1971). A conflict situation is induced in rats by a modification of this method. To groups of six naive Sprague-Dawley rats (200-220 grams), previously deprived of water for forty-eight hours and food for 24 hours, are administered graded oral doses of test compound suspended in 2% starch vehicle also containing 2 drops of polyethylene glycol and polysorbate 80, or vehicle alone (controls). At the time of peak effect each rat is placed in a plexiglass box fitted with a drinkometer circuit connected between the stainless steel grid floor and a stainless steel drinking tube inserted in a hole in one of the walls of the box. […] The number of shocks received by the rat during a 5 minute test period is recorded. […]

Compound	ED50 [1] [mg/kg]	ED50 [2] [mg/kg]
Cc1nnc2ccc(-c3ccccc3)nn12 [3-methyl-6-phenyl-1,2,4-triazolo[4,3-b]pyridazine]	3	100
c1ccc(-c2ccc3nncn3n2)cc1 [6-phenyl-1,2,4-triazolo[4,3-b]pyridazine]	9.5	–
CNC1=Nc2ccc(Cl)cc2C(c2ccccc2)=[N+]([O-])C1 [Chlordiazepoxide]	2.5	9.6
CCCC(C)(COC(N)=O)COC(N)=O [Meprobamate]	22	–
